Results taken from ChEMBL document CHEMBL5096158, “HIV latency reversal agents: A potential path for functional cure?” (Eur J Med Chem, 2021).

Experiments:
[1] = system: Human immunodeficiency virus 1; assay: Reactivation of HIV-1 latency infected in human Th17 cells assessed as increase in HIV production by measuring phosphorylated S175 CDK9 levels at 1 uM incubated for 96 hrs by flow cytometry; format: functional
[2] = system: Human immunodeficiency virus 1; assay: Reactivation of HIV-1 latency infected in human Th17 cells assessed as increase in HIV production by measuring phosphorylated S175 CDK9 levels at 10 nM incubated for 96 hrs by flow cytometry; format: functional
[3] = system: Human immunodeficiency virus 1; assay: Reversal of HIV-1 latency infected in human J-Lat Tat-GFP Clone A7 cells assessed as increase in GFP expressing cells at 200 nM incubated for 72 hrs by flow cytometry analysis relative to control; format: functional
[4] = system: Human immunodeficiency virus 1; assay: Reversal of HIV-1 latency infected in GFP-fused human J-Lat C11 cells assessed as increase in GFP expression at 10 uM incubated for 72 hrs by flow cytometry; format: functional
[5] = system: Human immunodeficiency virus 1; assay: Reversal of HIV-1 latency infected in GFP-fused human J-Lat 10.6 cells increase in GFP expressing cells by FACS analysis; format: functional, organism-based; details: Human immunodeficiency virus 1, J-Lat 10.6
[6] = system: Human immunodeficiency virus 1; assay: Reactivation of HIV-1 latency in GFP-fused human primary CD4+ve Th cells infected with HIV-1NL4-3 luciferase virus assessed as fold increase in GFP expression incubated for 48 hrs by luciferase luminescence analysis; format: functional
[7] = system: Human immunodeficiency virus 1; assay: Reversal of HIV-1 latency infected in GFP-fused human J-Lat A2 cells assessed as increase in GFP expression at 4 uM incubated for 3 hrs by flow cytometry; format: functional
[8] = system: Human immunodeficiency virus 1; assay: Reversal of HIV-1 latency infected in GFP-fused human J-Lat C11 cells assessed as increase in GFP expression at 4 uM incubated for 3 hrs by flow cytometry; format: functional
[9] = system: Human immunodeficiency virus 1; assay: Reactivation of HIV-1 latency infected in human J-Lat GFP Clone A72 cells assessed as increase in GFP expression at 5 to 10 mM incubated for 18 hrs by flow cytometry; format: functional; details: dose 5-10 mM
[10] = target: N-lysine methyltransferase SMYD2 (Homo sapiens, UniProt Q9NRG4); assay: Inhibition of SMYD2 (unknown origin)
[11] = system: Human immunodeficiency virus 1; assay: Reactivation of HIV-1 latency infected in human CD4+ve Th cells assessed as fold increase in GFP expression at 500 nM incubated for 18 hrs by flow cytometry; format: functional
[12] = system: Human immunodeficiency virus 1; assay: Reversal of HIV-1 latency infected in GFP-fused human A10.6 cells assessed as increase in GFP expressing cells at 1 uM incubated for 24 hrs by FACS analysis; format: functional, A10.6 cell
[13] = system: Human immunodeficiency virus 1; assay: Reversal of HIV-1 latency infected in GFP-fused human A10.6 cells assessed as increase in GFP expressing cells at 0.25 uM incubated for 24 hrs by FACS analysis; format: functional
[14] = system: Human immunodeficiency virus 1; assay: Reversal of HIV-1 latency infected in GFP-fused human A10.6 cells assessed as fold increase in acetylation of H4 within Nuc-1 at 0.5 uM incubated for 4 hrs by ChIP assay; format: functional, A10.6 cell
[15] = system: Human immunodeficiency virus 1; assay: Reversal of HIV-1 latency infected in GFP-fused human A10.6 cells assessed as fold increase in acetylation of H3 within Nuc-1 at 0.5 uM incubated for 4 hrs by ChIP assay; format: functional, A10.6 cell
[16] = system: Human immunodeficiency virus 1; assay: Reversal of HIV-1 latency infected in GFP-fused human Jurkat latent cells assessed as increase in GFP expressing cells at 4 uM incubated for 48 hrs by flow cytometry analysis; format: functional
[17] = system: Human immunodeficiency virus 1; assay: Reactivation of HIV-1 latency infected in GFP-fused human J-Lat 10.6 cells assessed as increase in GFP expression incubated for 48 hrs by flow cytometry; format: functional, organism-based; details: Human immunodeficiency virus 1, J-Lat 10.6, 48 h
[18] = Inhibition of HIV-1 latency infected in human ACH-2 cells assessed as fold increase in HIV production by measuring p24 level incubated for 48 hrs in presence of vorinostat by ELISA; format: functional, Human immunodeficiency virus 1, ACH-2 cell line
[19] = Inhibition of HIV-1 latency infected in human ACH-2 cells assessed as fold increase in HIV production by measuring p24 level incubated for 48 hrs in presence of 5-azacytidine by ELISA; format: functional, Human immunodeficiency virus 1, ACH-2 cell line
[20] = system: Human immunodeficiency virus 1; assay: Reversal of HIV-1 latency infected in GFP-fused human J-Lat C11 cells assessed as increase in GFP expression at 100 uM incubated for 72 hrs by flow cytometry; format: functional
[21] = Inhibition of HIV-1 latency infected in human ACH-2 cells assessed as fold increase in HIV production by measuring p24 level incubated for 48 hrs in presence of BIX01294 by ELISA; format: functional, Human immunodeficiency virus 1, ACH-2 cell line
[22] = target: T1, Protein deacetylase HDAC6 (Homo sapiens, UniProt Q9UBN7); assay: Inhibition of recombinant human HDAC6 expressed in baculovirus expression system using KI-104 as substrate incubated for 3 hrs by fluorescence-based assay
T1 sequence (Q9UBN7 whole entry): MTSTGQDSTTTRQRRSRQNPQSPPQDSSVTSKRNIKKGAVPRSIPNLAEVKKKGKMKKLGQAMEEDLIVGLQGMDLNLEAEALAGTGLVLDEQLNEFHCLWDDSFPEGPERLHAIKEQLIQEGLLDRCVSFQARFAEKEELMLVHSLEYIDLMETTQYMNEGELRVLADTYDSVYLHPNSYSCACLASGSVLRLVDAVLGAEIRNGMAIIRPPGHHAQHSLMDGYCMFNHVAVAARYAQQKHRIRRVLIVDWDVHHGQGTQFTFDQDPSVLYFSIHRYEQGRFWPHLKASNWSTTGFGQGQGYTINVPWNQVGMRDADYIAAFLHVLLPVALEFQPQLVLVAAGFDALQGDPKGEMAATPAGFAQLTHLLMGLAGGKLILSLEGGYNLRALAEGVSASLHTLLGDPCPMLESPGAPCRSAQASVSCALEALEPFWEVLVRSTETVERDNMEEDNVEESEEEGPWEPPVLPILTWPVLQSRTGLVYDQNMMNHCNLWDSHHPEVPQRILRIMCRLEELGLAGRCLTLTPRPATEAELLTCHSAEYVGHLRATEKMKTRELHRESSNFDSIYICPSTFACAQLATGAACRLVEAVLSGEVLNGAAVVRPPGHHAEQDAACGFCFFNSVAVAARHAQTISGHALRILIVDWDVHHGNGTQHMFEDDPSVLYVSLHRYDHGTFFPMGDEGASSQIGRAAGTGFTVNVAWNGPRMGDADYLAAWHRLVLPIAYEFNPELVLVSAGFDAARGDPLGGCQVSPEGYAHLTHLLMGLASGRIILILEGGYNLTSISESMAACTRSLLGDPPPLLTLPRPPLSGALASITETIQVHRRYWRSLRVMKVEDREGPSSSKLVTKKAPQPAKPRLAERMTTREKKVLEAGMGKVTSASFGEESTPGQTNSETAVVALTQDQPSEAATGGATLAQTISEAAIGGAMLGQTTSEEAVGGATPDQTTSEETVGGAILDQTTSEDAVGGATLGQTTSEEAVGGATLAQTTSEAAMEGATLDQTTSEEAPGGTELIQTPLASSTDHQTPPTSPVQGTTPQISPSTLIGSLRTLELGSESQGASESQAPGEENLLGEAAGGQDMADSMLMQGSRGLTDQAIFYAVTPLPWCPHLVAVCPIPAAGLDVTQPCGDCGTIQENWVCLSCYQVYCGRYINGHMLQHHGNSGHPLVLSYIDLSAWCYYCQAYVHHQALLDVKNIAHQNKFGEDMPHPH

Histone deacetylase 4 = Histone deacetylase 4 (Homo sapiens, UniProt P56524); assay: Inhibition of recombinant human HDAC4 expressed in baculovirus expression system using KI-104 as substrate incubated for 3 hrs by fluorescence-based assay
[23] = system: Human immunodeficiency virus 1; assay: Reactivation of HIV-1 latency in human ACH-2 cells assessed as fold increase in p24 expression at 1 uM incubated for 24 hrs by western blot analysis; format: functional, ACH-2 cell line
[24] = system: Human immunodeficiency virus 1; assay: Reactivation of HIV-1 latency in human U1 cells assessed as fold increase in p24 expression at 1 uM incubated for 24 hrs by western blot analysis; format: functional
[25] = system: Human immunodeficiency virus 1; assay: Reversal of HIV-1 latency in human ACH-2 cells assessed as increase in GFP positive cells incubated for 24 hrs by flow cytometry; format: functional, organism-based, ACH-2 cell line; details: Human immunodeficiency virus 1, ACH-2, 24 h
[26] = system: Human immunodeficiency virus 1; assay: Reversal of HIV-1 latency infected in human ACH-2 cells assessed as fold increase in p24 expression level at 15.6 nM incubated for 48 hrs by ELISA; format: functional, ACH-2 cell line
[27] = system: Human immunodeficiency virus 1; assay: Reversal of HIV-1 latency infected in human ACH-2 cells assessed as fold increase in p24 expression level at 31.1 nM incubated for 48 hrs by ELISA; format: functional, ACH-2 cell line
[28] = system: Human immunodeficiency virus 1; assay: Reversal of HIV-1 latency infected in human U1 cells assessed as fold increase in p24 expression level at 31.1 nM incubated for 48 hrs by ELISA; format: functional
[29] = system: Human immunodeficiency virus 1; assay: Reversal of HIV-1 latency infected in human U1 cells assessed as fold increase in p24 expression level at 15.6 nM incubated for 48 hrs by ELISA; format: functional
[30] = Inhibition of HIV-1 latency in human CD4+ve Th cells infected NL4.3-Luc virus assessed as p24 expression level incubated for 48 hrs by v450 dye based flow cytometry; format: functional, cell-based; details: Human immunodeficiency virus 1, CD4+ve Th
[31] = system: Human immunodeficiency virus 1; assay: Reversal of HIV-1 latency infected in human J-Lat Tat-GFP Clone A7 cells assessed as increase in GFP expressing cells at 100 nM incubated for 72 hrs by flow cytometry analysis relative to control; format: functional
[32] = system: Human immunodeficiency virus 1; assay: Reversal of HIV-1 latency infected in GFP-fused human J-Lat C11 cells assessed as increase in GFP expression at 2 uM incubated for 3 hrs by flow cytometry; format: functional

Sequence of N-lysine methyltransferase SMYD2 (Q9NRG4 whole entry): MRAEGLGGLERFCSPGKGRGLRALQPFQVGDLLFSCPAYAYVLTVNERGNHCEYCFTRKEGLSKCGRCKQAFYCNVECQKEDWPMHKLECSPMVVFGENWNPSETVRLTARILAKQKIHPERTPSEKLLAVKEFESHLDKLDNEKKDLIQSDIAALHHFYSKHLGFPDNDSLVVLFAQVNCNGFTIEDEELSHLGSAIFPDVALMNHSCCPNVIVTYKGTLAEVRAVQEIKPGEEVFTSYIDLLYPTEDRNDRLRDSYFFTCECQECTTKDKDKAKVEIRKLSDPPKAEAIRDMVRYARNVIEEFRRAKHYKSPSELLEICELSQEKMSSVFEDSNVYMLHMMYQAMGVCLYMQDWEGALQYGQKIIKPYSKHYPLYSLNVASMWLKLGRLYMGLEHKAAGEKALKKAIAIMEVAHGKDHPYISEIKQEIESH
Sequence of Histone deacetylase 4 (P56524 whole entry): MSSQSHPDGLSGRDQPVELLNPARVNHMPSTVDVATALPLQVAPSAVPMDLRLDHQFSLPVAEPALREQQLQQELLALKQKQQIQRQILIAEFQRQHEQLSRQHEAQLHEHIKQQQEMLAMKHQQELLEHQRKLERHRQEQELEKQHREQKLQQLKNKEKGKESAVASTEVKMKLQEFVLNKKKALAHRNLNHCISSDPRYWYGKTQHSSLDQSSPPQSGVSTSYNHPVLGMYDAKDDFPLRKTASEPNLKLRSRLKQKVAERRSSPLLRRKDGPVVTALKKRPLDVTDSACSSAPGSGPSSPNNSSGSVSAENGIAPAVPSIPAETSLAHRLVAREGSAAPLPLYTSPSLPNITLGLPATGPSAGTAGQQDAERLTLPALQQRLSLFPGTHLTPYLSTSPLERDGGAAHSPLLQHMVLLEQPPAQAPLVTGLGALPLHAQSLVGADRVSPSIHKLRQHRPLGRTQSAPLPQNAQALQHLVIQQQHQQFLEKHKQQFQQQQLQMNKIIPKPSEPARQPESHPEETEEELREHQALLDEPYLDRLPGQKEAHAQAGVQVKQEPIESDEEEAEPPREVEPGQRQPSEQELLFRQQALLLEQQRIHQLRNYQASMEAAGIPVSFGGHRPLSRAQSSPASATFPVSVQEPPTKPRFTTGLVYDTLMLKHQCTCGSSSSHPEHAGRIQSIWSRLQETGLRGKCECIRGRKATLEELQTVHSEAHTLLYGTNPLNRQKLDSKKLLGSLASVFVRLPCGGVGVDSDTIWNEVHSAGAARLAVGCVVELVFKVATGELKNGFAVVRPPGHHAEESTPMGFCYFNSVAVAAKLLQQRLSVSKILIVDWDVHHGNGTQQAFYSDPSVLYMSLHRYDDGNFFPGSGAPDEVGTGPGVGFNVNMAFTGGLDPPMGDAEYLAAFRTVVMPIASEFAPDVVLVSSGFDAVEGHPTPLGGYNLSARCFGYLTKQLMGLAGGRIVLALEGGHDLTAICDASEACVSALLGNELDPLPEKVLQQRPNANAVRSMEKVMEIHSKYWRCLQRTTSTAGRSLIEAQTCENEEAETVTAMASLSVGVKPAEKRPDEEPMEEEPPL

## COc1cc2c(NC3CCN(C(C)C)CC3)nc(C3CCCCC3)nc2cc1OCCCN1CCCC1
[1]
  Activity: 35%
[2]
  Activity: 22%

## CN(C)c1ccc(C(=O)NCCCCCCC(=O)NO)cc1
[3]
  Activity: 25.2%

## COc1ccccc1S(=O)(=O)Nc1ccc2c(c1)CN(C)C(=O)N2
[4]
  Activity: 89%

## CCCc1cc(C)[nH]c(=O)c1CNC(=O)c1cc(-c2ccnc(N3CCN(C)CC3)c2)cc2c1cnn2C(C)C
[1]
  Activity: 35%
[2]
  Activity: 20%

## O=C(CCCCSc1nc(-c2ccc(-c3ccccc3)cc2)cc(=O)[nH]1)NO
[5]
  EC50: 0.35 µM
[6]
  fold change (FC): 4.3

## O=C(/C=C/c1ccc(NC(=O)C(Cc2ccccc2)c2ccccc2)cn1)NO (stereo not given)
[5]
  EC50: 0.35 µM
[6]
  fold change (FC): 6.4

## Nc1ccc(F)cc1NC(=O)c1ccc(CNC(=O)/C=C/c2cccnc2)cc1
[7]
  Activity: 80.6%
[8]
  Activity: 82.6%

## O=C(NCCCN1CCCC1)c1cncc(-c2ccccc2N2CCN(CCc3c[nH]c4ccccc34)CC2)c1
[9]
  Activity: 30%

## N#Cc1cc(C(=O)NCCCN2CCCC2)cc(-c2ccccc2N2CCN(CCc3c[nH]c4ccccc34)CC2)c1
[10]
  IC50: 0.027 µM
[9]
  Activity: 30%
[11]
  fold change (FC): 4

## CCC(=O)CCCCC[C@@H]1NC(=O)[C@H]2CCCCN2C(=O)[C@H]([C@@H](C)CC)NC(=O)[C@H](Cc2cc3ccccc3n2OC)NC1=O
[12]
  Activity: 24.9%
[13]
  Activity: 7.5%
[14]
  fold change (FC): 3.15
[15]
  fold change (FC): 1.34

## CC(=O)SCCCCC[C@H](NC(=O)C1CCC(=O)N1)C(=O)Nc1ccccc1 (stereo not given in full)
[16]
  Activity: 52%

## CC(C)=CC(=O)O[C@H]1C(C)=C[C@]23C(=O)[C@H](C=C(CO)[C@@H](O)[C@]12O)C1C(C[C@H]3C)C1(C)C (stereo not given in full)
[17]
  EC50: 0.058 µM

## COc1cc2nc(N3CCCN(C)CC3)nc(NC3CCN(Cc4ccccc4)CC3)c2cc1OC
[18]
  fold change (FC): 47
[19]
  fold change (FC): 47

## COc1cc(OC)c2c(=O)[nH]c(-c3cc(C)c(OCCO)c(C)c3)nc2c1 [APABETALONE]
[20]
  Activity: 75%

## Nc1ncn([C@@H]2O[C@H](CO)[C@@H](O)[C@H]2O)c(=O)n1 [AZACITIDINE]
[21]
  fold change (FC): 47

## O=C(/C=C/c1cccc(S(=O)(=O)Nc2ccccc2)c1)NO [BELINOSTAT]
[22]
  EC50: 0.082 µM
Histone deacetylase 4
  EC50: 0.115 µM

## CC[C@@H]1C(=O)N(C)c2cnc(Nc3ccc(C(=O)NC4CCN(C)CC4)cc3OC)nc2N1C1CCCC1 [BI-2536]
[23]
  fold change (FC): 261
[24]
  fold change (FC): 177

## CC(C)[C@H]1C(=O)N[C@H](CO)Cc2c[nH]c3cccc(c23)N1C [INDOLACTUM]
[25]
  EC50: 0.047 µM

## Cc1[nH]c2ccccc2c1CCNCc1ccc(/C=C/C(=O)NO)cc1 [PANOBINOSTAT]
[26]
  fold change (FC): 27.7
[27]
  fold change (FC): 51.8
[28]
  fold change (FC): 19.9
[29]
  fold change (FC): 12.8
[30]
  EC50: 0.01 µM

## CCN(c1cc(-c2ccc(CN3CCOCC3)cc2)cc(C(=O)NCc2c(C)cc(C)[nH]c2=O)c1C)C1CCOCC1 [TAZEMETOSTAT]
[1]
  Activity: 35%
[2]
  Activity: 25%

## CC(/C=C/C(=O)NO)=C\[C@@H](C)C(=O)c1ccc(N(C)C)cc1 [TRICHOSTATIN]
[31]
  Activity: 21.3%

## O=C(CCCCCCC(=O)Nc1ccccc1)NO [VORINOSTAT]
[32]
  Activity: 3.2%
